Columns and labels:
[1] = system: HepG2 (human liver carcinoma cell line); experiment: CCK-8 antiproliferative assay, HepG2; type: cell-based; conditions: 48 h, read-out: IC50, Mean ± SE, HepG2
[2] = system: Caski (human epithelial cervical cancer cell line); experiment: CCK-8 antiproliferative assay, Caski; type: cell-based; conditions: Ca-Ski, 48 h, read-out: IC50, Mean ± SE, Caski
[3] = system: C42B (human prostate cancer line); experiment: CCK-8 antiproliferative assay, C42B; type: cell-based; conditions: 48 h, read-out: IC50, Mean ± SE, C42B
[4] = system: A549 (human non-small-cell-lung cancer cell line); experiment: CCK-8 antiproliferative assay, A549; type: cell-based; conditions: 48 h, read-out: IC50, Mean ± SE, A549
[5] = system: MCF-7 (human breast carcinoma cell line); experiment: CCK-8 antiproliferative assay, MCF-7; type: cell-based; conditions: MCF7, 48 h, read-out: IC50, Mean ± SE, MCF-7
[6] = metabolic stability in human liver microsomes; type: in vitro ADME; conditions: for Remaining%: 37 °C, NADPH regenerating system
Procedure: Metabolic stability is one of the most important properties in drug development. In this study, commercially available human liver microsomes were used to evaluate the metabolic stability of compound 14b. After incubation with human liver microsomes at 37 °C in vitro for an indicated time in a buffer solution containing a NADPH regenerating system, the residue of 14b was monitored by HPLC. CA-4 was used as the reference compound. […] As well known, a short half-life means a low bioavailability in vivo and is required for frequent administration with a high dose, which might result in drug accumulation and may produce related toxicity.

[7] = system: five kinds of human cancer cell lines (A549, Caski, HepG2, C42B, MCF-7); experiment: CCK-8 assay, panel of five human cancer cell lines; type: cell-based; conditions: 48 h, read-out: IC50 values, range over five human cancer cell lines

COc1cc(C(=O)c2cccc3c2ccn3C)cc2c1OC(C)(C)C=C2 [19b, (8-methoxy-2,2-dimethyl-2H-chromen-6-yl)(1-methyl-1H-indol-4-yl)methanone]
IC50 [1]: 898 ± 9 nM
IC50 [2]: 1100 ± 32 nM
IC50 [3]: 1080 ± 34 nM
IC50 [4]: 642 ± 81 nM
IC50 [5]: 1020 ± 15 nM

COc1cc(C(=O)c2cccc3[nH]ccc23)cc2c1OC(C)(C)C=C2 [19a, (1H-indol-4-yl)(8-methoxy-2,2-dimethyl-2H-chromen-6-yl)methanone]
IC50 [1]: 3098 ± 21 nM
IC50 [2]: 2311 ± 19 nM
IC50 [3]: 2410 ± 42 nM
IC50 [4]: 1320 ± 16 nM
IC50 [5]: 1775 ± 4 nM

COc1cc(C(=O)c2ccc3c(ccn3C)c2)cc2c1OC(C)(C)C=C2 [21b, (8-methoxy-2,2-dimethyl-2H-chromen-6-yl)(1-methyl-1H-indol-5-yl)methanone]
IC50 [1]: 97 ± 31 nM
IC50 [2]: 106 ± 12 nM
IC50 [3]: 107 ± 6 nM
IC50 [4]: 82 ± 10 nM
IC50 [5]: 99 ± 31 nM

COc1ccc(C(=O)c2cccc3c2ccn3C)c2c1C=CC(C)(C)O2 [11b, (5-methoxy-2,2-dimethyl-2H-chromen-8-yl)(1-methyl-1H-indol-4-yl)methanone]
IC50 [1]: 454 ± 21 nM
IC50 [2]: 516 ± 12 nM
IC50 [3]: 455 ± 15 nM
IC50 [4]: 208 ± 9 nM
IC50 [5]: 651 ± 24 nM

COc1cc(C(=O)/C=C/c2c[nH]c3ccccc23)cc2c1OC(C)(C)C=C2 [compound 5a, (E)-3-(1H-indol-3-yl)-1-(8-methoxy-2,2-dimethyl-2H-chromen-6-yl)prop-2-en-1-one]
IC50 [1]: 963 ± 32 nM
IC50 [2]: 1930 ± 35 nM
IC50 [3]: 1380 ± 21 nM
IC50 [4]: 812 ± 22 nM
IC50 [5]: 1553 ± 14 nM

COc1cc(C(=O)/C=C/c2cn(C)c3ccccc23)cc2c1OC(C)(C)C=C2 [5b, (E)-1-(8-methoxy-2,2-dimethyl-2H-chromen-6-yl)-3-(1-methyl-1H-indol-3-yl)prop-2-en-1-one]
IC50 [1]: 461 ± 17 nM
IC50 [2]: 729 ± 33 nM
IC50 [3]: 577 ± 21 nM
IC50 [4]: 362 ± 17 nM
IC50 [5]: 350 ± 11 nM

COc1ccc(/C=C\c2cc(OC)c(OC)c(OC)c2)cc1O [CA-4, reference compound]
t1/2 [6]: < 1 h
Remaining% ([6]; 30 min): 70.2%
Remaining% ([6]; 60 min): 28.3%
Remaining% ([6]; 90 min): 20.5%
Remaining% ([6]; 120 min): 18.7%

COc1ccc(C(=O)c2ccc(OC)c3c2OC(C)(C)C=C3)cc1 [Compd. A, reference compound]
IC50 [1]: 758 ± 17 nM
IC50 [2]: 892 ± 24 nM
IC50 [3]: 526 ± 7 nM
IC50 [7]: 226 to 892 nM
IC50 [4]: 226 ± 35 nM
IC50 [5]: 456 ± 21 nM

COc1cc(C(=O)c2ccc3[nH]ccc3c2)cc2c1OC(C)(C)C=C2 [21a, (1H-indol-5-yl)(8-methoxy-2,2-dimethyl-2H-chromen-6-yl)methanone]
IC50 [1]: 441 ± 71 nM
IC50 [2]: 211 ± 12 nM
IC50 [3]: 209 ± 20 nM
IC50 [4]: 105 ± 11 nM
IC50 [5]: 121 ± 21 nM

COc1ccc(/C=C/C(=O)c2ccc(OC)c3c2OC(C)(C)C=C3)cc1 [Millepachine]
IC50 [1]: 3880 ± 244 nM
IC50 [2]: 6710 ± 233 nM
IC50 [3]: 3180 ± 384 nM
IC50 [7]: 2570 to 6710 nM
IC50 [4]: 2570 ± 131 nM
IC50 [5]: 4530 ± 338 nM

COc1ccc(C(=O)c2ccc3[nH]ccc3c2)c2c1C=CC(C)(C)O2 [14a, (1H-indol-5-yl)(5-methoxy-2,2-dimethyl-2H-chromen-8-yl)methanone]
IC50 [1]: 142 ± 14 nM
IC50 [2]: 86 ± 9 nM
IC50 [3]: 89 ± 21 nM
IC50 [4]: 72 ± 4 nM
IC50 [5]: 82 ± 11 nM

COc1ccc(C(=O)c2cccc3[nH]ccc23)c2c1C=CC(C)(C)O2 [compound 11a, (1H-indol-4-yl)(5-methoxy-2,2-dimethyl-2H-chromen-8-yl)methanone]
IC50 [1]: 998 ± 34 nM
IC50 [2]: 832 ± 11 nM
IC50 [3]: 911 ± 34 nM
IC50 [4]: 631 ± 18 nM
IC50 [5]: 816 ± 45 nM

— PMC9921564, “Novel Indole-Containing Hybrids Derived from Millepachine: Synthesis, Biological Evaluation and Antitumor Mechanism Study” (Molecules, 2023)
